The values that follow come from patent US20230017532A1 (Hoffmann-La Roche Inc., priority 2018, published 2023).

Structures can show the parent of a compound that is named as a salt.

In one experiment the test system is Acinetobacter baumannii ATCC17978. Nature of the experiment: Antimicrobial susceptibility testing: 90% growth inhibitory concentration (IC90) determination, Iso-Sensitest broth, OD 600 nm. The experiment is classed as cell-based. The following applies: 90% growth inhibitory concentration, Acinetobacter baumannii ATCC17978, Iso-Sensitest broth, OD 600 nm over 16 h; read-out: ATCC 17978 IC90. How it is done: Antimicrobial Susceptibility Testing:
90% Growth Inhibitory Concentration (IC90) Determination
The in vitro antimicrobial activity of the compounds was determined according to the following procedure:
The assay used a 10-points Iso-Sensitest broth medium to measure quantitatively the in vitro activity of the compounds against Acinetobacter baumannii ATCC17978 and Acinetobacter baumannii ATCC17961.
Stock compounds in DMSO were serially twofold diluted (e.g. range from 50 to 0.097 μM final concentration) in 384 wells microtiter plates and inoculated with 49 μl the bacterial suspension in Iso-Sensitest medium to have a final cell concentration of ˜5×10^(5) CFU/ml in a final volume/well of 50 ul/well. Microtiter plates were incubated at 35±2° C.
Bacterial cell growth was determined with the measurement of optical density at λ=600 nm each 20 minutes over a time course of 16 h. Growth inhibition was calculated during the logarithmic growth of the bacterial cells with determination of the concentration inhibiting 50% (IC50) and 90% (IC90) of the growth.
Table 1 provides the 90% growth inhibitory concentrations (IC90) in micromoles per liter of the compounds of present invention obtained against the strain Acinetobacter baumannii ATCC17978 and Acinetobacter baumannii ATCC17961.
The term IC90 denotes the point of the concentration-response curve where the effect stands at 90%. On to `CCc1cc(Nc2nccn3c(-c4ccc(OCC#N)c(F)c4F)cnc23)ccc1C(=O)NCCOCCN` [Example 53, N-(2-(2-aminoethoxy)ethyl)-4-((3-(4-(cyanomethoxy)-2,3-difluorophenyl)imidazo[1,2-a]pyrazin-8-yl)amino)-2-ethylbenzamide], for which the concentration for an effect of 90% (IC90) came out at 0.13 µM.

The experiment is the same for the next values; noted with them: Acinetobacter baumannii, ATCC17978, 16 h, 90% growth inhibitory concentration, Acinetobacter baumannii ATCC17978, Iso-Sensitest broth, OD 600 nm over 16 h; read-out: ATCC 17978 IC90.
As for `COc1ccc(-c2cnc3c(Nc4ccc(C(=O)NCCOCCn5nccn5)c(C)c4)nccn23)cc1` [Example 147, 4-[[3-(4-methoxyphenyl)imidazo[1,2-a]pyrazin-8-yl]amino]-2-methyl-N-[2-[2-(triazol-2-yl)ethoxy)ethyl] benzamide], the 90% effect concentration (IC90) came out at 1.3 µM.

Regarding `COc1ccc(-c2cnc3c(Nc4ccc(C(=O)NCCOCCN(C)C)c(Cl)c4)nccn23)c(F)c1F` [Example 2, 2-chloro-4-[[3-(2,3-difluoro-4-methoxy-phenyl)imidazo[1,2-a]pyrazin-8-yl]amino]-N-[2-[2-(dimethylamino)ethoxy]ethyl]benzamide;2,2,2-trifluoroacetic acid], the IC90 was determined as 0.12 µM. Still for that read-out and setting: in the case of `Cc1cc(Nc2nccn3c(-c4ccc(OCC#CCOCCN)cc4)cnc23)ccc1C(=O)NCCOCCN` [Example 100, 4-[[3-[4-[4-(2-aminoethoxy)but-2-ynoxy]phenyl]imidazo[1,2-a]pyrazin-8-yl]amino]-N-[2-(2-aminoethoxy)ethyl]-2-methylbenzamide; formic acid] it was 0.44 µM. Same read-out and setting: in the case of `CN(CCOCCN1CCC(C(=O)O)CC1)C(=O)c1ccc(Nc2nccn3c(-c4ccc(OCC#N)c(F)c4F)cnc23)cc1Cl` [Example 175, 1-[2-[2-[[2-chloro-4-[[3-[4-(cyanomethoxy)-2,3-difluorophenyl]imidazo[1,2-a]pyrazin-8-yl]amino]benzoyl]-methylamino]ethoxy]ethyl] piperidine-4-carboxylic acid; formic acid] it was 1.1 µM. For the molecule `Cc1cc(Nc2nccn3c(-c4ccc(OC(F)F)cc4)cnc23)ccc1C(=O)NCCOCCN1CCCCC1` [Example 95, 4-[[3-[4-(difluoromethoxy)phenyl]imidazo [1,2-a]pyrazin-8-yl]amino]-2-methyl-N-[2-(2-piperidin-1-ylethoxy)ethyl] benzamide], the 90% effect concentration (IC90) was 0.28 µM.

On to `Cc1cc(Nc2nccn3c(-c4ccc(OC(F)F)cc4)cnc23)ccc1C(=O)NCCOCCOCCN` [Example 16, N-(2-(2-(2-aminoethoxy)ethoxy)ethyl)-4-((3-(4-(difluoromethoxy)phenyl)imidazo[1,2-a]pyrazin-8-yl)amino)-2-methylbenzamide], for which the IC90 is 0.57 µM. The same measure, in the same setting: the same measure for `COc1ccc(-c2cnc3c(Nc4ccc(C(=O)NCCOCCN)c(C)c4)nccn23)cc1` [Example 14, N-(2-(2-aminoethoxy)ethyl)-4-((3-(4-methoxyphenyl)imidazo[1,2-a]pyrazin-8-yl)amino)-2-methylbenzamide hydrochloride]: 0.24 µM; for `COc1ccc(-c2cnc3c(Nc4ccc(C(=O)N(C)CCOCCN5CCNCC5)c(Cl)c4)nccn23)cc1F` [Example 163, 2-chloro-4-[[3-(3-fluoro-4-methoxyphenyl)imidazo[1,2-a]pyrazin-8-yl]amino]-N-methyl-N-[2-(2-piperazin-1-ylethoxy)ethyl] benzamide; hydrochloride]: 0.57 µM; for `COc1ccc(-c2cnc3c(Nc4ccc(C(=O)NCCNCCN)c(C)c4)nccn23)cc1` [Example 104, N-[2-(2-aminoethylamino)ethyl]-4-[[3-(4-methoxyphenyl)imidazo[1,2-a]pyrazin-8-yl]amino]-2-methylbenzamide; hydrochloride]: 0.48 µM. Turning to `C#CCOc1ccc(-c2cnc3c(Nc4ccc(C(=O)NCCCNCCO)c(CC)c4)nccn23)c(F)c1F` [Example 73, 4-[[3-(2,3-difluoro-4-prop-2-ynoxy-phenyl)imidazo[1,2-a]pyrazin-8-yl]amino]-2-ethyl-N-[3-(2-hydroxyethylamino)propyl]benzamide], the IC90 was found to be 0.17 µM. The same measure, in the same setting: the same measure for `COc1ccc(-c2cnc3c(Nc4ccc(C(=O)NCCOCCN5CCC(O)CC5)c(C)c4)nccn23)cc1` [Example 38, N-(2-(2-(4-hydroxypiperidin-1-yl)ethoxy)ethyl)-4-((3-(4-methoxyphenyl)imidazo[1,2-a]pyrazin-8-yl)amino)-2-methylbenzamide]: 0.15 µM; for `Cc1cc(Nc2nccn3c(-c4ccc(OC(F)F)cc4)cnc23)ccc1C(=O)NCCOCCNC(=O)CN(C)C` [Example 127, 4-[[3-[4-(difluoromethoxy)phenyl]imidazo [1,2-a]pyrazin-8-yl]amino]-N-[2-[2-[[2-(dimethyl-amino)acetyl]amino]ethoxy]ethyl]-2-methylbenzamide]: 0.67 µM; for `CNCCOCCNC(=O)c1ccc(Nc2nccn3c(-c4ccc(OC)cc4)cnc23)cc1C` [Example 39, 4-((3-(4-methoxyphenyl)imidazo[1,2-a]pyrazin-8-yl)amino)-2-methyl-N-(2-(2-(methylamino)ethoxy)ethyl)benzamide]: 0.26 µM. Consider `COc1ccc(-c2cnc3c(Nc4ccc(C(=O)NCCOCCN)c(F)c4)nccn23)cc1` [Example 145, N-[2-(2-aminoethoxy)ethyl]-2-fluoro-4-[[3-(4-methoxyphenyl)imidazo[1,2-a]pyrazin-8-yl]amino] benzamide; hydrochloride], for which the IC90 worked out at 1.2 µM. Same read-out and setting: in the case of `Cc1cc(Nc2nccn3c(-c4ccc(OC(F)F)cc4)cnc23)ccc1C(=O)NCCOCCNC(=O)C(N)CCCCN` (centres unmarked) [Example 154, N-[2-[2-(2,6-diaminohexanoyl-amino)ethoxy]ethyl]-4-[[3-[4-(difluoromethoxy)phenyl]imidazo [1,2-a]pyrazin-8-yl]amino]-2-methylbenzamide; hydrochloride] it was 2.2 µM; in that of `COc1ccc(-c2cnc3c(Nc4ccc(C(=O)NCCNCCC[C@H](N)C(=O)O)c(C)c4)nccn23)c(F)c1F` [Example 189, (2S)-2-amino-5-[2-[[4-[[3-(2,3-difluoro-4-methoxyphenyl)imidazo[1,2-a]pyrazin-8-yl]amino]-2-methyl-benzoyl]amino]ethylamino] pentanoic acid], 2.4 µM; in that of `Cc1cc(Nc2nccn3c(-c4ccc(OC(F)F)cc4)cnc23)ccc1C(=O)NCCOCCNC=O` [Example 94, 4-[[3-[4-(difluoromethoxy)phenyl]imidazo [1,2-a]pyrazin-8-yl]amino]-N-[2-(2-formamidoethoxy)ethyl]-2-methylbenzamide], 0.28 µM. On the same count and under the same terms, the same measure for `CNCCOCCNC(=O)c1ccc(Nc2nccn3c(-c4ccc(OC(F)F)cc4)cnc23)cc1C` [Example 45, 4-((3-(4-(difluoromethoxy)phenyl)imidazo[1,2-a]pyrazin-8-yl)amino)-2-methyl-N-(2-(2-(methylamino)ethoxy)ethyl)benzamide]: 0.29 µM; for `COc1ccc(-c2cnc3c(Nc4ccc(C(=O)NCCOCCCl)c(C)c4)nccn23)cc1` [Example 8, N-(2-(2-chloroethoxy)ethyl)-4-((3-(4-methoxyphenyl)imidazo[1,2-a]pyrazin-8-yl)amino)-2-methylbenzamide]: 0.63 µM. For the molecule `CCc1cc(Nc2nccn3c(-c4ccc(OC)c(F)c4F)cnc23)ccc1C(=O)NCCCCNCC(=O)O` [Example 197, (4-(4-((3-(2,3-difluoro-4-methoxyphenyl)imidazo[1,2-a]pyrazin-8-yl)amino)-2-ethylbenzamido)butyl)glycine hydrochloride], the IC90 amounted to 0.37 µM. Still for that read-out and setting: the same measure for `Cc1cc(Nc2nccn3c(-c4ccc(OC(F)F)cc4)cnc23)ccc1C(=O)NCCOCCN1CCC(O)CC1` [Example 81, 4-[[3-[4-(difluoromethoxy)phenyl]imidazo [1,2-a]pyrazin-8-yl]amino]-N-[2-[2-(4-hydroxy-piperidin-1-yl)ethoxy]ethyl]-2-methylbenzamide]: 0.34 µM.

Turning to `COc1ccc(-c2cnc3c(Nc4ccc(C(=O)NCCOCCN)c(CCF)c4)nccn23)c(F)c1F` [Example 74, N-[2-(2-aminoethoxy)ethyl]-4-[[3-(2,3-difluoro-4-methoxy-phenyl)imidazo[1,2-a]pyrazin-8-yl]amino]-2-(2-fluoroethyl)benzamide], the IC90 is 0.046 µM.

The same experiment, now with this note: Acinetobacter baumannii, ATCC17978, 16 h, read-out: ATCC 17978 IC90.
`Cc1cc(Nc2nccn3c(-c4ccc(F)cc4)cnc23)ccc1C(=O)NCCOCCN` [Example 31, N-(2-(2-aminoethoxy)ethyl)-4-((3-(4-fluorophenyl)imidazo[1,2-a]pyrazin-8-yl)amino)-2-methylbenzamide hydrochloride]: the 90% effect concentration (IC90) was found to be 0.95 µM. With `CCc1cc(Nc2nccn3c(-c4c(F)cc(OC)cc4F)cnc23)ccc1C(=O)NCCOCCN` [Example 54, N-[2-(2-aminoethoxy)ethyl]-4-[[3-(2,6-difluoro-4-methoxyphenyl)imidazo[1,2-a]pyrazin-8-yl]amino]-2-ethylbenzamide hydrochloride], the 90% effect concentration (IC90) amounted to 0.32 µM.

For the molecule `Cc1cc(Nc2nccn3c(-c4ccc(F)c(F)c4F)cnc23)ccc1C(=O)NCCOCCN` [Example 37, N-(2-(2-aminoethoxy)ethyl)-2-methyl-4-((3-(2,3,4-trifluorophenyl)imidazo[1,2-a]pyrazin-8-yl)amino)benzamide hydrochloride], the IC90 was 0.37 µM.
